Article PMC8645336, “Benchmarking a highly selective USP30 inhibitor for enhancement of mitophagy and pexophagy” (Life Science Alliance, 2021)

Experiments:
Assay in all cases: biochemical
Parameters in all cases: Ubiquigent DUB profiler selectivity panel, remaining enzyme activity as % of control
Settings in all cases: read-out: % of control remaining
JOSD1 = JOSD1 (Homo sapiens, UniProt Q15040)
Summary of the method: (§1)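 In YFP-PRKN-overexpressing hTERT-RPE1 cells, 1 h antimycin A plus oligomycin A (1 μM each) with CMPD-39, then Western blot of TOMM20 ubiquitylation. Target engagement: 2 h compound, then 10 min HA-Ub-PA at 37°C, read as USP30 shift. DUB panel (>40 enzymes) screened at 1-100 μM.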

USP35** = biological target: T1, USP35** (Homo sapiens, UniProt Q9P2H5)
T1 sequence (Q9P2H5 1-1018): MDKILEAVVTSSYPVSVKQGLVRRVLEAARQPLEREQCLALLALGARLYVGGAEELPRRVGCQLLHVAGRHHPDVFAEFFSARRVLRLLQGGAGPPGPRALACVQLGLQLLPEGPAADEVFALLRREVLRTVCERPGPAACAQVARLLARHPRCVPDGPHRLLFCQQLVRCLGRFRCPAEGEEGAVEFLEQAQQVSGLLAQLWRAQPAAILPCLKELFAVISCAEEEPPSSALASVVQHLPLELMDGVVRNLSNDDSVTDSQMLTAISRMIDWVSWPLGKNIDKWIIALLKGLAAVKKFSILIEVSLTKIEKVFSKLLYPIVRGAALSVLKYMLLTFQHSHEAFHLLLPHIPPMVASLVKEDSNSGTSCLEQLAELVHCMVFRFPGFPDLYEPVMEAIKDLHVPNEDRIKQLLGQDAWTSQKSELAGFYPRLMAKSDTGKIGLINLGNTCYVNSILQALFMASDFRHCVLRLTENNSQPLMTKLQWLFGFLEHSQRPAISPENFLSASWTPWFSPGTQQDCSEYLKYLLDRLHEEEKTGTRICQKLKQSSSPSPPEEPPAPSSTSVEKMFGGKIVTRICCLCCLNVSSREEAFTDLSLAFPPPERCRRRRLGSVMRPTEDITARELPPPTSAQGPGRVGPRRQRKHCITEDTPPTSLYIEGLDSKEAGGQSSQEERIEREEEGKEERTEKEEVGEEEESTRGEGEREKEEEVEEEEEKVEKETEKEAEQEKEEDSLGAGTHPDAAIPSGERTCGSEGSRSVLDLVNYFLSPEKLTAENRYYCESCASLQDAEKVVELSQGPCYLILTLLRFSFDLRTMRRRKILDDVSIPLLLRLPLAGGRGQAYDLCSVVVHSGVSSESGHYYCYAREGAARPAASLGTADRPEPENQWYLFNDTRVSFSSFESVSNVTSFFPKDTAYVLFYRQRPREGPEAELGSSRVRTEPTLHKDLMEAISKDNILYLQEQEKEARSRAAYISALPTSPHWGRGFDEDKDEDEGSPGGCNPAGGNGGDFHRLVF
Summary of the method: as §1

USP4 = biological target: T2, USP4 (Homo sapiens, UniProt Q13107)
T2 sequence (Q13107 1-963): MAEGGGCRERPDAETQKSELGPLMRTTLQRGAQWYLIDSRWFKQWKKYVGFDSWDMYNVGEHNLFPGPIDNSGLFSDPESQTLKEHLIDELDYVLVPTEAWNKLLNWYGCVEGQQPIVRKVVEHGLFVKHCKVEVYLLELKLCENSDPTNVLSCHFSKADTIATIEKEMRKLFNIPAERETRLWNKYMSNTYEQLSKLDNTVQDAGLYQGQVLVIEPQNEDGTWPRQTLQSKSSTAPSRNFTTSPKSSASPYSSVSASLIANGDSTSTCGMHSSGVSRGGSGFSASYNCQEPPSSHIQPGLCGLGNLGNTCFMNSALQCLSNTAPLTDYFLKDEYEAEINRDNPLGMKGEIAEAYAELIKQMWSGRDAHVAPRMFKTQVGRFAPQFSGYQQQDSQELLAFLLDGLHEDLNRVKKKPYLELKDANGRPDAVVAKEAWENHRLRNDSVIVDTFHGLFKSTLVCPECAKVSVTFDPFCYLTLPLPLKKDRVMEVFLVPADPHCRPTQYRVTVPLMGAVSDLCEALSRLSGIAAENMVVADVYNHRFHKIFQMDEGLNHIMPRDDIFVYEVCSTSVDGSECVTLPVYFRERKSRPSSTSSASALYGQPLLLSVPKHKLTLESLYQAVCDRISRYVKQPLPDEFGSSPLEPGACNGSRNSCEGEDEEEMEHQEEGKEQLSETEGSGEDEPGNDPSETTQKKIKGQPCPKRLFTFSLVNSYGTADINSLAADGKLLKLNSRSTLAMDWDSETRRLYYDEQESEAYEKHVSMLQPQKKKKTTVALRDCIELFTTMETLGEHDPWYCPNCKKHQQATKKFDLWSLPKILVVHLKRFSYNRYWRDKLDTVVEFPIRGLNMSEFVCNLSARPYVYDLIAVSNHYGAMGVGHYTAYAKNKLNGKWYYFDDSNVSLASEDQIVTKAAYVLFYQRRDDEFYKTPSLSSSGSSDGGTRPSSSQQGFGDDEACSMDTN
Summary of the method: as §1

CC(C)(C)NS(=O)(=O)c1ccc(NC(=O)[C@H](Cc2ccccc2)NC(=O)c2ccc(F)cc2)cc1 [compound 39, CMPD-39] gave a remaining activity at 1 µM (JOSD1) of 98.1%, a remaining activity at 10 µM (JOSD1) of 99.6% and a remaining activity at 100 µM (JOSD1) of 103%. It also gave a remaining activity at 1 µM (USP35**) of 113%, a remaining activity at 10 µM (USP35**) of 101% and a remaining activity at 100 µM (USP35**) of 102%. It also gave a remaining activity at 1 µM (USP4) of 107%, a remaining activity at 10 µM (USP4) of 103% and a remaining activity at 100 µM (USP4) of 98.9%.
